According to patent US6949574B2 (Bristol-Myers Squibb Company, priority 2002, dated 2005):

Molecular target: T1, human FAAH (Homo sapiens, UniProt O00519)
T1 construct: expressed in transfected cells; host or cells: H4 cells (H4-FAAH, Geneticin-selected); crude membrane homogenates
T1 sequence (O00519 1-579): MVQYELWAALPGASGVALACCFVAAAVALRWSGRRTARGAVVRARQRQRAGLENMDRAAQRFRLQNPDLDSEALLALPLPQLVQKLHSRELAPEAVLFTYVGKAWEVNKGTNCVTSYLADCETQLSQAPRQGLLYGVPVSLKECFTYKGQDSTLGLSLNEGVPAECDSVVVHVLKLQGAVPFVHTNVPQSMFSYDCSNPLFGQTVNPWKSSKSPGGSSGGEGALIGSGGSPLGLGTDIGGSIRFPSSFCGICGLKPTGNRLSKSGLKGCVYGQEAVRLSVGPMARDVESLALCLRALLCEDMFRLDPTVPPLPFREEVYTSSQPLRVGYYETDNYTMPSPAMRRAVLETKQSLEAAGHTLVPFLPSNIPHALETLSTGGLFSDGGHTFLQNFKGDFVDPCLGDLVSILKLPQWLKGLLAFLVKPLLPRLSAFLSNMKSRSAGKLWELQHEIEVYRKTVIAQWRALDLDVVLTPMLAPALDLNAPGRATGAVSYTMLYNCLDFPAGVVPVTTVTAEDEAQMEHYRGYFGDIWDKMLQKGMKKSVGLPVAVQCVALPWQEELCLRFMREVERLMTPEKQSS
Assay: FAAH activity in membrane homogenates of H4-FAAH cells, [3H]-anandamide hydrolysis
Assay type: biochemical
Conditions: not given
Protocol: Homogenates of crude membranes were prepared from H4 cells that express transfected human FAAH (H4-FAAH cells). Briefly, cells were grown in DMEM supplemented with 10% FBS and Geneticin at a final concentration of 500 μg/ml (Gibco BRL, Rockville, Md.). Confluent cultures of H4-FAAH cells were rinsed twice with phosphate-buffered saline [138 mM NaCl, 4.1 mM KCl, 5.1 mM Na2PO4, 1.5 mM KH2PO4 (pH 7.5), 37° C.] and incubated for 5 to 10 minutes at 4° C. in lysis buffer [1 mM sodium bicarbonate]. Cells were transferred from plates to polypropylene tubes (16×100 mm), homogenized and centrifuged at 32,000×g for 30 minutes. Pellets were resuspended by homogenization in lysis buffer and centrifuged at 32,000×g for 30 minutes. Pellets were resuspended in lysis buffer (15-20 μg protein/ml) then stored at −80° C. until needed. On the day of an experiment, membranes were diluted to 2.67 μg protein/ml in 125 mM Tris-Cl, pH 9.0.
Activity of FAAH was measured using a modification of the method described by Omeir et al., 1995 (Life Sci 56:1999, 1995). Membrane homogenates (240 ng protein) were incubated at room temperature for one hour with 1.67 nM anandamide [ethanolamine 1-^3H] (available from American Radiolabeled Chemical Inc., St Louis, Mo.) and 10 μM anandamide (available from Sigma/RBI, St. Louis, Mo.) in the absence and presence of inhibitors. The reaction was stopped by the addition of 1 volume of a solution of 1:1 methanol and dichloroethane. The mixture was shaken and then centrifuged at 1000×g for 15 minutes to separate the aqueous and organic phases. An aliquot of the aqueous phase, containing [^3H]-ethanolamine was withdrawn and counted by scintillation spectroscopy. Data were expressed as the percentage of [^3H]-ethanolamine formed versus vehicle, after subtraction of the background radioactivity determined in the presence of 10 μM arachidonyl trifluoromethyl ketone (ATFMK), an inhibitor of FAAH. IC50 values were determined using a four-parameter logistic equation for dose-response curves.

SMILES	IC50
CCCCCCCCCCOc1ccc(NC(=O)Oc2ccccc2)cc1 [Example 101, 4-Decyloxyphenylcarbamic acid, phenyl ester]	< 10 nM
CCCCCCCCCCCOc1ccc(NC(=O)Oc2ccccc2)cc1 [Example 103, 4-Undecyloxyphenylcarbamic acid, phenyl ester]	< 10 nM
CCCCCCCCCCCOc1ccc(NC(=O)Oc2ccccc2F)cc1 [Example 104, 4-Undecyloxyphenylcarbamic acid, 2-fluorophenyl ester]	10 to 100 nM
CCc1ccc(-c2ccc(NC(=O)Oc3ccccc3F)cc2)cc1 [Example 124, 4′-Ethyl-[1,1′-biphenyl]-4-ylcarbamic acid, 2-fluorophenyl ester]	> 500 nM

Same assay, conditions: H4-FAAH cell membranes, 10 μM anandamide, room temperature, one hour; read-out: IC50

SMILES	IC50
O=C(Nc1ccc(OCCCc2ccccc2)cc1)O/N=C/c1cccnc1 [Example 80, 3-Pyridinecarboxaldehyde, O-[[[4-(3-phenylpropoxy)phenyl]amino]carbonyl]oxime]	< 10 nM
O=C(Nc1ccc(OCc2ccccc2)cc1)O/N=C/c1ccc(F)cc1 [Example 81, 4-Fluorobenzaldehyde, O-[[[4-(phenylmethoxy)phenyl]amino]carbonyl]oxime]	< 10 nM
O=C(Nc1ccc(OCCc2ccccc2)cc1)O/N=C/c1ccc(F)cc1 [Example 82, 4-Fluorobenzaldehyde, O-[[[4-(2-phenylethoxy)phenyl]amino]carbonyl]oxime]	< 10 nM
O=C(Nc1ccc(OCCCc2ccccc2)cc1)O/N=C/c1ccc(F)cc1 [Example 83, 4-Fluorobenzaldehyde, O-[[[4-(3-phenylpropoxy)phenyl]amino]carbonyl]oxime]	< 10 nM
O=C(Nc1ccc(OCc2ccccc2)cc1)O/N=C/c1ccccc1 [Example 84, Benzaldehyde, O-[[[4-(phenylmethoxy)phenyl]amino]carbonyl]oxime]	< 10 nM
O=C(Nc1ccc(OCCc2ccccc2)cc1)O/N=C/c1ccccc1 [Example 85, Benzaldehyde, O-[[[4-(2-phenylethoxy)phenyl]amino]carbonyl]oxime]	< 10 nM
O=C(Nc1ccc(OCCCc2ccccc2)cc1)O/N=C/c1ccccc1 [Example 86, Benzaldehyde, O-[[[4-(3-phenylpropoxy)phenyl]amino]carbonyl]oxime]	< 10 nM
O=C(Nc1cccc(Oc2ccccc2)c1)O/N=C/c1cccnc1 [Example 87, 3-Pyridinecarboxaldehyde, O-[[(3-phenoxyphenyl)amino]carbonyl]oxime]	< 10 nM
O=C(Nc1cccc(Oc2ccccc2)c1)O/N=C/c1ccc(F)cc1 [Example 88, 4-Fluorobenzaldehyde, O-[[(3-phenoxyphenyl)amino]carbonyl]oxime]	< 10 nM
O=C(Nc1cccc(Oc2ccccc2)c1)O/N=C/c1ccccc1 [Example 91, Benzaldehyde, O-[[(3-phenoxyphenyl)amino]carbonyl]oxime]	< 10 nM
O=C(Nc1ccccc1Oc1ccccc1)O/N=C/c1cccnc1 [Example 92, 3-Pyridinecarboxaldehyde, O-[[(2-phenoxyphenyl)amino]carbonyl]oxime]	> 500 nM
CCCCCCOc1ccc(NC(=O)Oc2ccccc2)cc1 [Example 93, 4-Hexyloxyphenylcarbamic acid, phenyl ester]	10 to 100 nM
CCCCCCOc1ccc(NC(=O)Oc2ccccc2F)cc1 [Example 94, 4-Hexyloxyphenylcarbamic acid, 2-fluorophenyl ester]	> 500 nM
CCCCOc1ccc(NC(=O)OC)cc1 [Example 95, 4-Butoxyphenylcarbamic acid, methyl ester]	> 500 nM
CCCCCCCOc1ccc(NC(=O)Oc2ccccc2)cc1 [Example 96, 4-Heptyloxyphenylcarbamic acid, phenyl ester]	< 10 nM
CCCCCCCOc1ccc(NC(=O)Oc2ccccc2F)cc1 [Example 97, 4-Heptyloxyphenylcarbamic acid, 2-fluorophenyl ester]	10 to 100 nM
CCCCCCCCOc1ccc(NC(=O)Oc2ccccc2)cc1 [Example 98, 4-Octyloxyphenylcarbamic acid, phenyl ester]	< 10 nM
CCCCCCCCOc1ccc(NC(=O)Oc2ccccc2F)cc1 [Example 99, 4-Octyloxyphenylcarbamic acid, 2-fluorophenyl ester]	10 to 100 nM
CCCCOc1ccc(NC(=O)Oc2ccc(Cl)cc2)cc1 [Example 100]	10 to 100 nM

SMILES	IC50
CCCCCCCCCCOc1ccc(NC(=O)Oc2ccccc2F)cc1 [Example 102, 4-Decyloxyphenylcarbamic acid, 2-fluorophenyl ester]	< 10 nM
CCCCCCCCCCCCOc1ccc(NC(=O)Oc2ccccc2)cc1 [Example 105, 4-Dodecyloxyphenylcarbamic acid, phenyl ester]	< 10 nM
CCCCCCCCCCCCOc1ccc(NC(=O)Oc2ccccc2F)cc1 [Example 106, 4-Dodecyloxyphenylcarbamic acid, 2-fluorophenyl ester]	10 to 100 nM
CCCCOc1ccc(NC(=O)Oc2ccccc2F)cc1 [Example 107, 4-Butoxyphenylcarbamic acid, 2-fluorophenyl ester]	101 to 500 nM
CCCCOc1ccc(NC(=O)Oc2ccc(F)cc2)cc1 [Example 108, 4-Butoxyphenylcarbamic acid, 4-fluorophenyl ester]	101 to 500 nM
CCCCOc1ccc(NC(=O)Oc2ccc(F)c(F)c2)cc1 [Example 109, 4-Butoxyphenylcarbamic acid, 3,4-difluorophenyl ester]	> 500 nM
CCCCOc1ccc(NC(=O)Oc2ccccc2OC)cc1 [Example 110, 4-Butoxyphenylcarbamic acid, 2-methoxyphenyl ester]	> 500 nM
CCCCOc1ccc(CNC(=O)Oc2ccccc2)cc1 [Example 111, 4-(Butoxyphenylmethyl)carbamic acid, phenyl ester]	< 10 nM
CCCCOc1ccc(CNC(=O)Oc2ccccc2F)cc1 [Example 112, 4-(Butoxyphenylmethyl)carbamic acid, 2-fluorophenyl ester]	< 10 nM
CCCCOc1ccc(CNC(=O)Oc2ccc(OC)cc2)cc1 [Example 113, 4-(Butoxyphenylmethyl)carbamic acid, 4-methoxyphenyl ester]	< 10 nM
CCCCOc1ccc(CNC(=O)Oc2cccc3ccccc23)cc1 [Example 115, 4-(Butoxyphenylmethyl)carbamic acid, 1-naphthalenyl ester]	10 to 100 nM
CCCCOc1ccc(CNC(=O)Oc2ccc3ccccc3c2)cc1 [Example 116, 4-(Butoxyphenylmethyl)carbamic acid, 2-naphthalenyl ester]	10 to 100 nM
CCCCOc1ccc(CNC(=O)Oc2ccc(C(C)C)cc2)cc1 [Example 117, 4-(Butoxyphenylmethyl)carbamic acid, 4-(1-methylethyl)phenyl ester]	10 to 100 nM
CCCCOc1ccc(CNC(=O)Oc2cccc(N(C)C)c2)cc1 [Example 118, 4-(Butoxyphenylmethyl)carbamic acid, 3-(dimethylamino)phenyl ester]	10 to 100 nM
CCCCOc1ccc(CNC(=O)Oc2ccc(C(F)(F)F)cc2)cc1 [Example 119, 4-(Butoxyphenylmethyl)carbamic acid, 4-(trifluoromethyl)phenyl ester]	10 to 100 nM
CCCCOc1ccc(CNC(=O)Oc2ccc(F)cc2F)cc1 [Example 120, 4-(Butoxyphenylmethyl)carbamic acid, 2,4-difluorophenyl ester]	< 10 nM
CCCCOc1ccc(CNC(=O)Oc2ccc(F)cc2)cc1 [Example 121, 4-(Butoxyphenylmethyl)carbamic acid, 4-fluorophenyl ester]	< 10 nM
CCCCOc1ccc(CNC(=O)Oc2cccc(Cl)c2)cc1 [Example 122, 4-(Butoxyphenylmethyl)carbamic acid, 3-chlorophenyl ester]	10 to 100 nM
O=C(Nc1ccc(Oc2ccccc2)cc1)Oc1ccccc1F [Example 123, 4-Phenoxyphenylcarbamic acid, 2-fluorophenyl ester]	> 500 nM
